From patent US12319700B2, “Monohydrate potassium salt of a thienopyridone derivative and its preparation process” (POXEL, priority 2018, dated 2025)

Key:
ob/ob mice [1] = assay: Body weight in male obese diabetic dyslipidemic ob/ob mice, 5 weeks of treatment; assay type: in vivo, mouse
Procedure: (§1) Effects of Compound (I) in male obese diabetic dyslipidemic ob/ob mice after 5 weeks of treatment.
(§2) Compound (I) was administered at 25, 50 and 100 mg/kg twice a day by oral route in carboxy methylcellulose 0.5%/Tween 80 (98/2) (n=10). A group of ob/ob mice was treated with carboxy methylcellulose 0.5%/Tween 80 (98/2) as a control group.

[2] = test system: Spontaneous Hypertensive Rat (SHR); assay: Arterial pressure by telemetry in conscious unrestrained Spontaneous Hypertensive Rat (SHR); assay type: in vivo; details: 150 mg/kg bid for 5 days, over 24 h on the 5th day
Procedure: The effects of Compound (I) on arterial pressure was measured in conscious unrestrained well-known rat model of hypertension, the Spontaneous Hypertensive Rat (SHR), using telemetry. SHR aged of 21-22 weeks present a higher arterial pressure compared to healthy Wistar rats: systolic arterial pressure was 200 mmHg vs 120 mmHg in Wistar rats.
Four male SHR were submitted to surgery to implant a blood pressure catheter into the abdominal aorta. The telemetry transmitter was attached to the peritoneum. Ten days after recovery, the same animal received vehicle or Compound (I) 150 mg/kg bid administered for 5 days, 5 weeks apart. Systolic, diastolic and mean arterial pressures were recorded during 24 h, the 5th day of treatment.

ob/ob mice [3] = assay: Dyslipidemia in male obese diabetic dyslipidemic ob/ob mice, 5 weeks of treatment; assay type: in vivo, mouse
Procedure: as §1, §2

AMPK = AMPK activity (P-AMPK/AMPK) in liver and visceral adipose tissue of DIO-NASH mice; assay type: in vivo, mouse; details: 8 weeks; for increase of AMPK activity in the liver (P-AMPK/AMPK): p<0.05
Procedure: (§3) • The effects of the monohydrate potassium salt of formula (I) (or “Compound (I)”) on liver and adipose tissue (AT) metabolism in a diet-induced obesity non-alcoholic steatohepatitis (DIO-NASH) mouse model are reported here.
(§4) After 41 weeks, only DIO-NASH mice with biopsy-confirmed steatosis (score ≥2) and fibrosis (stage ≥1) were included and received orally (n=12) vehicle (ctrl), compound (I) 35 or 75 mg/kg twice daily for 8 weeks.

[4] = test system: diet-induced obesity non-alcoholic steatohepatitis (DIO-NASH) mouse model; assay: Diet-induced obesity NASH (DIO-NASH) mouse model: effects on liver and adipose tissue metabolism; assay type: in vivo; details: 8 weeks; for change of liver weight compared to ctrl group / decrease in hepatic stellate cell activation (aSMA positive staining) / decrease in plasma free fatty acid level / increase of PGCl-α protein expression in AT / reduction of fat pad mass / reduction of liver TG content / hormone-sensitive lipase P-HSLser565 / down-regulation of fibrotic gene expression (type I collagen): p<0.01; for hormone-sensitive lipase P-HSLser563 / hormone-sensitive lipase P-HSLser565: adipose tissue; for down-regulation of fibrotic gene expression (type I collagen): liver
Procedure: as §3, §4

[5] = 50 mg/kg twice a day oral, p<0.001
[6] = 100 mg/kg twice a day oral, p<0.001

With `O=c1[nH]c2sc(Cl)c(-c3ccc4c(c3O)CCCC4)c2c([O-])c1-c1ccccc1.[K+]` [Compound (I), monohydrate potassium salt of 2-chloro-4-hydroxy-3-(5-hydroxytetralin-6-yl)-5-phenyl-7H-thieno[2,3-b]pyridin-6-one] the “decrease of body weight compared to day 1” value (ob/ob mice [1]; 25 mg/kg twice a day oral) was −17%, the “decrease of body weight compared to day 1” value (ob/ob mice [1]; 50 mg/kg twice a day oral) was −24% and the “reduction of diastolic arterial pressure (DAP) compared to vehicle-treated SHR” value [2] was −17 mmHg. For the same molecule, the “reduction of mean arterial pressure (MAP) compared to vehicle-treated SHR” value [2] was −18 mmHg, the “reduction of systolic arterial pressure (SAP) compared to vehicle-treated SHR” value [2] was −19 mmHg and the “decrease of plasma FFA” value (ob/ob mice [3]; 25 mg/kg twice a day oral, NS) was −14%. For the same molecule, the “decrease of plasma triglyceride” value (ob/ob mice [3]; 25 mg/kg twice a day oral, NS) was −19%, the “increase in HDL cholesterol” value (ob/ob mice [3]; 25 mg/kg twice a day oral, NS) was “+12%” and the “decrease of plasma triglyceride” value (ob/ob mice [3]; [5]) was −40%. For the same molecule, the “increase in HDL cholesterol” value (ob/ob mice [3]; [5]) was “+31%”, the “decrease of plasma FFA” value (ob/ob mice [3]; 50 mg/kg twice a day oral, p<0.05) was −35% and the “decrease of plasma FFA” value (ob/ob mice [3]; 100 mg/kg twice a day oral, NS) was −21%. For the same molecule, the “decrease of plasma triglyceride” value (ob/ob mice [3]; [6]) was −43%, the “increase in HDL cholesterol” value (ob/ob mice [3]; [6]) was “+32%” and the “AMPK activation in visceral AT (P-AMPK/AMPK)” value (AMPK; 35 mg/kg orally twice daily, ns) was “+130%”. For the same molecule, the “increase of AMPK activity in the liver (P-AMPK/AMPK)” value (AMPK; 35 mg/kg orally twice daily) was “+128%”, the “AMPK activation in visceral AT (P-AMPK/AMPK)” value (AMPK; 75 mg/kg orally twice daily, p<0.01) was “+152%” and the “increase of AMPK activity in the liver (P-AMPK/AMPK)” value (AMPK; 75 mg/kg orally twice daily) was “+143%”. For the same molecule, the “reduction of NAFLD Activity Score (NAS)” value ([4]; 35 mg/kg orally twice daily, from 6.6, p<0.01) was −32%, the “change of liver weight compared to ctrl group” value ([4]; 35 mg/kg orally twice daily) was −23% and the “decrease in hepatic stellate cell activation (aSMA positive staining)” value ([4]; 35 mg/kg orally twice daily) was −34%. For the same molecule, the “decrease in plasma free fatty acid level” value ([4]; 35 mg/kg orally twice daily) was −37%, the “increase of PGCl-α protein expression in AT” value ([4]; 35 mg/kg orally twice daily) was “+321%” and the “reduction of fat pad mass” value ([4]; 35 mg/kg orally twice daily) was −25%. The “reduction of liver TG content” value ([4]; 35 mg/kg orally twice daily) was −36%, the “NAFLD Activity Score (NAS) after treatment” value ([4]; 35 mg/kg orally twice daily, from 6.6) was 4.5 and the “reduction of NAFLD Activity Score (NAS)” value ([4]; 75 mg/kg orally twice daily, from 6.7, p<0.01) was −44%. The “change of liver weight compared to ctrl group” value ([4]; 75 mg/kg orally twice daily) was −33%, the “decrease in hepatic stellate cell activation (aSMA positive staining)” value ([4]; 75 mg/kg orally twice daily) was −39% and the “decrease in plasma free fatty acid level” value ([4]; 75 mg/kg orally twice daily) was −38%. For the same molecule, the “increase of PGCl-α protein expression in AT” value ([4]; 75 mg/kg orally twice daily) was “+409%”, the “reduction of fat pad mass” value ([4]; 75 mg/kg orally twice daily) was −37% and the “reduction of liver TG content” value ([4]; 75 mg/kg orally twice daily) was −42%. The “decrease of MCP-1 gene expression in AT” value ([4]; 75 mg/kg orally twice daily, p<0.05) was −55%, the “NAFLD Activity Score (NAS) after treatment” value ([4]; 75 mg/kg orally twice daily, from 6.7) was 3.8 and the “hormone-sensitive lipase P-HSLser563” value ([4]; 35 mg/kg orally twice daily) was −67%. For the same molecule, the “hormone-sensitive lipase P-HSLser565” value ([4]; 35 mg/kg orally twice daily) was “+416%”, the “hormone-sensitive lipase P-HSLser563” value ([4]; 75 mg/kg orally twice daily) was −52% and the “hormone-sensitive lipase P-HSLser565” value ([4]; 75 mg/kg orally twice daily) was “+425%”. The “down-regulation of fibrotic gene expression (type I collagen)” value ([4]; 35 mg/kg orally twice daily) was −65% and the “down-regulation of fibrotic gene expression (type I collagen)” value ([4]; 75 mg/kg orally twice daily) was −68%.
